In the NIST ThermoML archive (doi:10.1016/j.jct.2016.12.036):
± gives the expanded uncertainty stated by the source. Values belong to the compound of their own block, whether it stands above or below them.

Tests used:
[1] = 298.15 K, 81.5 kPa, Liquid; for viscosity: Capillary tube (Ostwald / Ubbelohde) method; for mass density: Vibrating tube method
[2] = refractive index (Na D-line) (dimensionless); conditions: 298.15 K; 81.5 kPa; Liquid; Standard Abbe refractometry
[3] = excess molar enthalpy (molar enthalpy of mixing); xn = mol fraction of the nth substance listed; conditions: 298 K, 81.5 kPa, Liquid, Isoperibol calorimetry

viscosity [1]: 2.572 ± 0.055 mPa·s
mass density [1]: 806 ± 1 kg/m3
refractive index [2]: 1.3967 ± 0.001
SMILES: CCCCO [butan-1-ol]

viscosity [1]: 3.05 ± 0.067 mPa·s
mass density [1]: 802.5 ± 1 kg/m3
refractive index [2]: 1.3945 ± 0.0011
SMILES: CCC(C)O (stereo not given) [butan-2-ol]

viscosity [1]: 1.385 ± 0.029 mPa·s
mass density [1]: 892.8 ± 1 kg/m3
refractive index [2]: 1.4537 ± 0.0011
SMILES: NCCN [ethane-1,2-diamine]

excess molar enthalpy ([3]; x1 = 0.1001): -0.209 ± 0.00263 kcal/mol
excess molar enthalpy ([3]; x1 = 0.2): -0.372 ± 0.00478 kcal/mol
excess molar enthalpy ([3]; x1 = 0.3007): -0.462 ± 0.00574 kcal/mol
excess molar enthalpy ([3]; x1 = 0.4033): -0.478 ± 0.00598 kcal/mol
excess molar enthalpy ([3]; x1 = 0.5073): -0.435 ± 0.0055 kcal/mol
excess molar enthalpy ([3]; x1 = 0.5963): -0.363 ± 0.00454 kcal/mol
excess molar enthalpy ([3]; x1 = 0.6988): -0.275 ± 0.00359 kcal/mol
excess molar enthalpy ([3]; x1 = 0.7998): -0.179 ± 0.00232 kcal/mol
excess molar enthalpy ([3]; x1 = 0.8998): -0.0844 ± 0.0012 kcal/mol
SMILES: NCCN [ethane-1,2-diamine] + CC(C)O

excess molar enthalpy ([3]; x1 = 0.0999): -0.204 ± 0.00263 kcal/mol
excess molar enthalpy ([3]; x1 = 0.1999): -0.369 ± 0.00454 kcal/mol
excess molar enthalpy ([3]; x1 = 0.3009): -0.461 ± 0.00574 kcal/mol
excess molar enthalpy ([3]; x1 = 0.4025): -0.473 ± 0.00598 kcal/mol
excess molar enthalpy ([3]; x1 = 0.5055): -0.424 ± 0.00526 kcal/mol
excess molar enthalpy ([3]; x1 = 0.6098): -0.338 ± 0.0043 kcal/mol
excess molar enthalpy ([3]; x1 = 0.6982): -0.237 ± 0.00311 kcal/mol
excess molar enthalpy ([3]; x1 = 0.7999): -0.143 ± 0.00189 kcal/mol
excess molar enthalpy ([3]; x1 = 0.9): -0.0601 ± 0.000908 kcal/mol
SMILES: NCCN [ethane-1,2-diamine] + CCC(C)O

excess molar enthalpy ([3]; x1 = 0.1003): -0.275 ± 0.00359 kcal/mol
excess molar enthalpy ([3]; x1 = 0.2002): -0.486 ± 0.00598 kcal/mol
excess molar enthalpy ([3]; x1 = 0.3011): -0.594 ± 0.00741 kcal/mol
excess molar enthalpy ([3]; x1 = 0.4024): -0.6 ± 0.00741 kcal/mol
excess molar enthalpy ([3]; x1 = 0.5053): -0.535 ± 0.00669 kcal/mol
excess molar enthalpy ([3]; x1 = 0.6097): -0.428 ± 0.00526 kcal/mol
excess molar enthalpy ([3]; x1 = 0.6983): -0.312 ± 0.00406 kcal/mol
excess molar enthalpy ([3]; x1 = 0.8): -0.192 ± 0.00239 kcal/mol
excess molar enthalpy ([3]; x1 = 0.8999): -0.0853 ± 0.00122 kcal/mol
SMILES: NCCN [ethane-1,2-diamine] + CCCCO

excess molar enthalpy ([3]; x1 = 0.1): -0.307 ± 0.00406 kcal/mol
excess molar enthalpy ([3]; x1 = 0.199): -0.529 ± 0.00669 kcal/mol
excess molar enthalpy ([3]; x1 = 0.3043): -0.65 ± 0.00813 kcal/mol
excess molar enthalpy ([3]; x1 = 0.4066): -0.66 ± 0.00813 kcal/mol
excess molar enthalpy ([3]; x1 = 0.5106): -0.594 ± 0.00741 kcal/mol
excess molar enthalpy ([3]; x1 = 0.5944): -0.507 ± 0.00621 kcal/mol
excess molar enthalpy ([3]; x1 = 0.697): -0.387 ± 0.00478 kcal/mol
excess molar enthalpy ([3]; x1 = 0.7983): -0.254 ± 0.00335 kcal/mol
excess molar enthalpy ([3]; x1 = 0.8996): -0.121 ± 0.00167 kcal/mol
SMILES: NCCN [ethane-1,2-diamine] + CCCO

excess molar enthalpy ([3]; x1 = 0.1003): -0.354 ± 0.00454 kcal/mol
excess molar enthalpy ([3]; x1 = 0.201): -0.6 ± 0.00741 kcal/mol
excess molar enthalpy ([3]; x1 = 0.301): -0.72 ± 0.00884 kcal/mol
excess molar enthalpy ([3]; x1 = 0.4042): -0.735 ± 0.00908 kcal/mol
excess molar enthalpy ([3]; x1 = 0.4958): -0.688 ± 0.0086 kcal/mol
excess molar enthalpy ([3]; x1 = 0.5987): -0.584 ± 0.00717 kcal/mol
excess molar enthalpy ([3]; x1 = 0.7006): -0.452 ± 0.00574 kcal/mol
excess molar enthalpy ([3]; x1 = 0.8007): -0.305 ± 0.00382 kcal/mol
excess molar enthalpy ([3]; x1 = 0.8987): -0.153 ± 0.00208 kcal/mol
SMILES: NCCN [ethane-1,2-diamine] + CCO

excess molar enthalpy ([3]; x1 = 0.0995): -0.486 ± 0.00621 kcal/mol
excess molar enthalpy ([3]; x1 = 0.1972): -0.831 ± 0.0103 kcal/mol
excess molar enthalpy ([3]; x1 = 0.295): -1.01 ± 0.0124 kcal/mol
excess molar enthalpy ([3]; x1 = 0.3909): -1.05 ± 0.0129 kcal/mol
excess molar enthalpy ([3]; x1 = 0.4934): -0.976 ± 0.012 kcal/mol
excess molar enthalpy ([3]; x1 = 0.5948): -0.834 ± 0.0103 kcal/mol
excess molar enthalpy ([3]; x1 = 0.6953): -0.655 ± 0.00813 kcal/mol
excess molar enthalpy ([3]; x1 = 0.7971): -0.449 ± 0.00574 kcal/mol
excess molar enthalpy ([3]; x1 = 0.8994): -0.225 ± 0.00311 kcal/mol
SMILES: NCCN [ethane-1,2-diamine] + CO

viscosity [1]: 1.093 ± 0.023 mPa·s
mass density [1]: 785.2 ± 1 kg/m3
refractive index [2]: 1.3588 ± 0.001
SMILES: CCO [ethanol]

viscosity [1]: 0.573 ± 0.012 mPa·s
mass density [1]: 786.7 ± 1 kg/m3
refractive index [2]: 1.3263 ± 0.0011
SMILES: CO [methanol]

viscosity [1]: 1.943 ± 0.041 mPa·s
mass density [1]: 799.5 ± 1 kg/m3
refractive index [2]: 1.3825 ± 0.001
SMILES: CCCO [propan-1-ol]

viscosity [1]: 2.067 ± 0.044 mPa·s
mass density [1]: 781 ± 1 kg/m3
refractive index [2]: 1.3745 ± 0.0011
SMILES: CC(C)O [propan-2-ol]
